In US10676473B2, “Solid state forms of fused heteroaromatic pyrrolidinones” (TAKEDA PHARMACEUTICAL COMPANY LIMITED, priority 2014, dated 2020):
In brackets after ≈: the same amount, converted by molar mass. Entries after “also recorded” stand apart in the source; their conditions may differ. Counter-ions that a name gives are not always drawn. Like-named read-outs stand apart in the source and are kept apart here.

Key:
[1] = Gravimetric vapour sorption (GVS) isotherm; format: physicochemical; details: for hygroscopicity by GVS / GVS behaviour (dehydration, crystallisation, transformation): 25° C.; for hygroscopicity by GVS: subjected to humidity (various RH levels); for GVS behaviour (dehydration, crystallisation, transformation): RH as stated in the value; for change in form / XRPD pattern post GVS analysis: XRPD after the isotherm; for GVS mass / total weight change: between 0-90% RH; for water exchanged (GVS): between 0 and 90% RH
Protocol: Sorption isotherms were obtained using a SMS DVS Intrinsic moisture sorption analyser, controlled by DVS Intrinsic Control software v1.0.0.30. The sample temperature was maintained at 25° C. by the instrument controls. The humidity was controlled by mixing streams of dry and wet nitrogen, with a total flow rate of 200 ml/min The relative humidity was measured by a calibrated Rotronic probe (dynamic range of 1.0-100% RH), located near the sample. The weight change, (mass relaxation) of the sample as a function of % RH was constantly monitored by the microbalance (accuracy ±0.005 mg).
Typically 5-20 mg of sample was placed in a tared mesh stainless steel basket under ambient conditions. The sample was loaded and unloaded at 40% RH and 25° C. (typical room conditions). A moisture sorption isotherm was performed as outlined below (2 scans giving 1 complete cycle). The standard isotherm was performed at 25° C. at 10% RH intervals over a 0-90% RH range. Data analysis was undertaken in Microsoft Excel using DVS Analysis Suite v6.0.
The sample was recovered after completion of the isotherm and re-analyzed by XRPD.

[2] = Storage at elevated temperature/humidity, form checked by XRPD; format: physicochemical; details: for stability on storage: duration not given; for stability to moisture / humidity: exposure to humidity
[3] = Safety and dose limiting toxicity in the dose escalation study in patients; format: in vivo, human
Protocol: (§1) Patients aged ≥18 yrs with advanced solid tumors/lymphoma whose disease failed standard therapies received oral Compound 1 citrate (Form 1) daily (QD, 60-120 mg) in 28 day cycles. To determine the maximum tolerated dose, dose escalation proceeded via modified titration design based on dose limiting toxicity or any drug-related grade ≥2 adverse event (AE) during cycle 1. Blood samples for plasma pharmacokinetic assessments were collected pre-dose and post-dose on day 1 and day 15 of cycle 1. Response assessments per RECIST for solid tumors and per IWG criteria for lymphoma were performed between day 22 and day 29 (pre-dose) of cycle 2, 4 and 6, and every 3 cycles thereafter.

[4] = tested on: advanced solid tumors/lymphoma; test: Response assessment (RECIST / IWG criteria) in patients; format: in vivo, human
Protocol: as §1

[5] = Plasma pharmacokinetics in patients, oral once daily dosing; details: human, in vivo
Protocol: as §1

[6] = Solubility of solid forms; format: physicochemical
[7] = DLBCL, 60 mg QD, after 2 cycles

## Cn1cc(-c2nc(N[C@@H]3CCCC[C@@H]3N)c(F)c3c2C(=O)NC3)cn1 [Compound 1 citrate, 6-(((1R,2S)-2-aminocyclohexyl)amino)-7-fluoro-4-(1-methyl-1H-pyrazol-4-yl)-1H-pyrrolo[3,4-c]pyridin-3(2H)-one citrate]
[1]; citrate
  hygroscopicity by GVS: non hygroscopic

## Cn1cc(-c2nc(N[C@@H]3CCCC[C@@H]3N)c(F)c3c2C(=O)NC3)cn1 [Compound 1 free base, 6-((1R,2S)-2-aminocyclohexylamino)-7-fluoro-4-(1-methyl-1H-pyrazol-4-yl)-1H-pyrrolo[3,4-c]pyridine-3(2H)-one]
[1]
  GVS behaviour (dehydration, crystallisation, transformation): the methanol solvate desolvated, however, the anhydrous form was found to be stable
[2]; 40° C./75% RH
  stability on storage: the methanol solvate desolvated, however, the anhydrous form was found to be stable

## Cn1cc(-c2nc(N[C@@H]3CCCC[C@@H]3N)c(F)c3c2C(=O)NC3)cn1 [Form 1]
[1]
  hygroscopicity by GVS: not hygroscopic
  change in form / XRPD pattern post GVS analysis: No change in form was observed
  GVS mass / total weight change: less than 0.3%
[1]; RH range not printed at the place
  GVS variation: less than 0.3 % w/w
[2]; 25° C./97% RH for 1 week
  change in form after storage: No change in form was observed
[2]; 40° C./75% RH for 1 week
  change in form after storage: No change in form was observed
[3]; 60 mg QD
  patients died on study (deaths not related to study drug): 3
[3]; 120 mg QD
  patients died on study (deaths not related to study drug): 1 patient
[3]; human, in vivo
  patients discontinued due to adverse events: 3 patients
[3]; overall, 15 patients
  patients died on study (deaths not related to study drug): 4 patients
[4]; 60 mg QD, after 2 cycles, 5 response-evaluable patients (4 DLBCL)
  DLBCL patients showing signs of response: 2 patients
[4]; [7]
  patients with partial response: 1
  tumor reduction in 1 patient: 25%
[4]; DLBCL, 80 mg, after 1 cycle, post data cut-off
  patients achieving partial response: 1 patient
[5]; 15 days
  mean accumulation: 2.7 fold
[5]; po, 120 mg
  coefficient of variation for dl 5 AUCtau (variability in steady-state exposures): 47%
[5]; plasma, 11 patients at 60 and 120 mg oral QD, read-out: median Tmax
  Tmax: 2 h

## Cn1cc(-c2nc(N[C@@H]3CCCC[C@@H]3N)c(F)c3c2C(=O)NC3)cn1 [Form 2]
[1]
  GVS behaviour (dehydration, crystallisation, transformation): adsorbs moisture in the range of 40-80% relative humidity (RH) and undergoes a crystallization event above 80% RH; also recorded: undergoes a crystallisation event above 80% RH
  change in form / XRPD pattern post GVS analysis: transformation to Form 1
[1]; between 80% and 90% RH
  GVS weight loss accompanying crystallization: 7%
[1]; range of 40-80% RH
  moisture adsorbed (GVS): 9 % w/w

## Cn1cc(-c2nc(N[C@@H]3CCCC[C@@H]3N)c(F)c3c2C(=O)NC3)cn1 [Form 3, 6-(((1R,2S)-2-aminocyclohexyl)amino)-7-fluoro-4-(1-methyl-1H-pyrazol-4-yl)-1H-pyrrolo[3,4-c]pyridin-3(2H)-one hydrochloride dihydrate]
[1]; hydrochloride dihydrate
  GVS behaviour (dehydration, crystallisation, transformation): subject to dehydration below 20% RH
  change in form / XRPD pattern post GVS analysis: No change in form was observed
[2]; 25° C./97% RH for 1 week
  change in form after storage: No change in form was observed
[2]; 40° C./75% RH for 1 week
  change in form after storage: No change in form was observed

## Cn1cc(-c2nc(N[C@@H]3CCCC[C@@H]3N)c(F)c3c2C(=O)NC3)cn1 [Form 4]
[1]
  hygroscopicity by GVS: not hygroscopic; also recorded: non-hygroscopic
[2]; 25° C./97% RH for 10 days
  change in form during storage: did not change form
[2]; 40° C./75% RH for 10 days
  change in form during storage: did not change form
[2]; 40° C./97% RH for 10 days
  change in form during storage: did not change form
[2]
  stability to moisture / humidity: stable to moisture

## Cn1cc(-c2nc(N[C@@H]3CCCC[C@@H]3N)c(F)c3c2C(=O)NC3)cn1 [Form 5]
[1]
  hygroscopicity by GVS: not hygroscopic
  change in form / XRPD pattern post GVS analysis: did not change form
[6]; medium not given, read-out: solubility
  solubility: 11000 µg/mL (≈ 31900 µM)
[2]; 40° C./97% RH for 10 days
  change in form during storage: did not change form
[2]
  stability to moisture / humidity: stable to moisture

## Cn1cc(-c2nc(N[C@@H]3CCCC[C@@H]3N)c(F)c3c2C(=O)NC3)cn1 [Form 6]
[1]
  GVS behaviour (dehydration, crystallisation, transformation): adsorbs moisture and undergoes a crystallisation event above 70% RH
[1]; between 40-60% RH
  GVS water uptake: 5 % w/w
[1]; between 70-90% RH
  GVS weight loss: 3%
[2]
  stability to moisture / humidity: seems to undergo a phase transformation, possibly leading to Form 9

## Cn1cc(-c2nc(N[C@@H]3CCCC[C@@H]3N)c(F)c3c2C(=O)NC3)cn1 [Form 7]
[1]; RH range not given
  GVS water uptake: 10.5%
[2]
  stability to moisture / humidity: unstable to humidity and converted back to a hydrated form (Form 9)

## Cn1cc(-c2nc(N[C@@H]3CCCC[C@@H]3N)c(F)c3c2C(=O)NC3)cn1 [Form 8]
[1]
  GVS behaviour (dehydration, crystallisation, transformation): minimal weight variation between 10 and 90% RH

## Cn1cc(-c2nc(N[C@@H]3CCCC[C@@H]3N)c(F)c3c2C(=O)NC3)cn1 [Form 12]
[1]
  GVS behaviour (dehydration, crystallisation, transformation): Hysterisis was observed between 40 and 60% RH; also recorded: possibility of the transformation of Form 12 to a hydrated form
  GVS mass / total weight change: about 6%
[6]; water, pH 9.41, pH 9.41, read-out: aqueous solubility
  solubility: 580 µg/mL (≈ 1680 µM)
[2]; 25° C./97% RH
  stability on storage: not stable
[2]; 40° C./75% RH
  stability on storage: No obvious stability issues were noted

## Cn1cc(-c2nc(N[C@@H]3CCCC[C@@H]3N)c(F)c3c2C(=O)NC3)cn1 [Form 13]
[1]
  hygroscopicity by GVS: not hygroscopic
  change in form / XRPD pattern post GVS analysis: no transformation to hydrates was observed
  GVS mass / total weight change: less than 0.6%
[6]; water, pH 9.05, pH 9.05, read-out: aqueous solubility
  solubility: 190 µg/mL (≈ 552 µM)
[2]; 25° C./97% RH
  stability on storage: stable
[2]; 40° C./75% RH
  stability on storage: stable

## Cn1cc(-c2nc(N[C@@H]3CCCC[C@@H]3N)c(F)c3c2C(=O)NC3)cn1 [Form 14]
[1]
  change in form / XRPD pattern post GVS analysis: no change in the XRPD pattern was noted
  GVS mass / total weight change: 1.5%
  water exchanged (GVS): 0.25 eq.
[2]; 25° C./97% RH
  stability on storage: stable
[2]; 40° C./75% RH
  stability on storage: stable

## Cn1cc(-c2nc(N[C@@H]3CCCC[C@@H]3N)c(F)c3c2C(=O)NC3)cn1 [Form 15]
[1]
  change in form / XRPD pattern post GVS analysis: no change in the XRPD pattern was noted
  GVS mass / total weight change: 2.0%
  water exchanged (GVS): 0.4 eq.
[6]; pH 9.41
  aqueous solubility: 710 µg/mL (≈ 2060 µM)
[2]; 25° C./97% RH
  stability on storage: stable
[2]; 40° C./75% RH
  stability on storage: stable

## Cn1cc(-c2nc(N[C@@H]3CCCC[C@@H]3N)c(F)c3c2C(=O)NC3)cn1 [Form 16]
[1]
  GVS behaviour (dehydration, crystallisation, transformation): dehydration below 30% RH; also recorded: stable at and above 30% RH at 25 °C and desolvated below 30% RH
[6]; water, pH 9.27, pH 9.27, read-out: aqueous solubility
  solubility: 130 µg/mL (≈ 377 µM)
[2]; 25° C./97% RH
  stability on storage: No changes in the XRPD pattern were observed
[2]; 40° C./75% RH
  stability on storage: No changes in the XRPD pattern were observed

## Cn1cc(-c2nc(N[C@@H]3CCCC[C@@H]3N)c(F)c3c2C(=O)NC3)cn1 [Form 17]
[1]
  change in form / XRPD pattern post GVS analysis: no change in the XRPD pattern was noted
  water exchanged (GVS): 0.3 eq.
[6]; water, pH 9.33, pH 9.33, read-out: aqueous solubility
  solubility: 180 µg/mL (≈ 523 µM)
[2]; 25° C./97% RH
  stability on storage: stable
[2]; 40° C./75% RH
  stability on storage: stable
